Experimental data reported in US20020172670A1 (priority 2000, published 2002).
pIC50: −log10 of the molar value.

Columns and labels:
dGMII [1] = target: T1, dGMII (Drosophila melanogaster, UniProt Q24451); details: cited from earlier work
T1 construct: The resulting constructs consist of the dGMII catalytic region with a short length of the stalk region; Bip secretion signal (N); made in house; host or cells: Drosophila Schneider S2 cells, stably transfected, protein secreted into the medium
T1 sequence (Q24451 76-1108): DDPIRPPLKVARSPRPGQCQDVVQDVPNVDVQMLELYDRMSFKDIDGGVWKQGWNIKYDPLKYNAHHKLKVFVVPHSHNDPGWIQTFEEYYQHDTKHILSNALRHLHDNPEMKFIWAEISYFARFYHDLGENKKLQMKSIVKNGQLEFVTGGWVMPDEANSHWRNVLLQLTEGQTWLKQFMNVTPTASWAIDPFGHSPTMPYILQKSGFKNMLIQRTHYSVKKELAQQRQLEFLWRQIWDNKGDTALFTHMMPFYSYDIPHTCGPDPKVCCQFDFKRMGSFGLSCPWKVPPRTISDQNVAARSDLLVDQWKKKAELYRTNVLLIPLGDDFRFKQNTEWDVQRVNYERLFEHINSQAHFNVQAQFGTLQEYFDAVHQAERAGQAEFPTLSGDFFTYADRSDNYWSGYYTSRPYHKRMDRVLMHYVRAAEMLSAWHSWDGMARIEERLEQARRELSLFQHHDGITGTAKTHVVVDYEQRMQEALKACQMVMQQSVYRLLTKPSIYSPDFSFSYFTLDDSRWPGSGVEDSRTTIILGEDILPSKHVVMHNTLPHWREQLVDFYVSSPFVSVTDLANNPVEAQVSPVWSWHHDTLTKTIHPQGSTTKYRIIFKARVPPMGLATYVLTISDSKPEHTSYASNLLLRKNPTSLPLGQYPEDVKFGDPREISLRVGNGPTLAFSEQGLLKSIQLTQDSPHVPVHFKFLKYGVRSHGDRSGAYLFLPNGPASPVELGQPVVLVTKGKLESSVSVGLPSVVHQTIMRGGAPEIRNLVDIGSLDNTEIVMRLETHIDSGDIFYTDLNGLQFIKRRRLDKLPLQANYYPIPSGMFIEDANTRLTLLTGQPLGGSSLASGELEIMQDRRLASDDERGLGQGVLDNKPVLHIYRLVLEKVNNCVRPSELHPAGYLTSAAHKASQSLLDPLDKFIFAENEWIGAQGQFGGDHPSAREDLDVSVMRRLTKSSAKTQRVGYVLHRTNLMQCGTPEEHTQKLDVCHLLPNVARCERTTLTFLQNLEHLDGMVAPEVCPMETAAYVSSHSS

dGMII [2] = target: T2, dGMII (Drosophila melanogaster, UniProt Q24451); assay: binding affinity of inhibitors for dGMII; details: relative to DMNJ; data not shown
T2 sequence (Q24451 1-1108): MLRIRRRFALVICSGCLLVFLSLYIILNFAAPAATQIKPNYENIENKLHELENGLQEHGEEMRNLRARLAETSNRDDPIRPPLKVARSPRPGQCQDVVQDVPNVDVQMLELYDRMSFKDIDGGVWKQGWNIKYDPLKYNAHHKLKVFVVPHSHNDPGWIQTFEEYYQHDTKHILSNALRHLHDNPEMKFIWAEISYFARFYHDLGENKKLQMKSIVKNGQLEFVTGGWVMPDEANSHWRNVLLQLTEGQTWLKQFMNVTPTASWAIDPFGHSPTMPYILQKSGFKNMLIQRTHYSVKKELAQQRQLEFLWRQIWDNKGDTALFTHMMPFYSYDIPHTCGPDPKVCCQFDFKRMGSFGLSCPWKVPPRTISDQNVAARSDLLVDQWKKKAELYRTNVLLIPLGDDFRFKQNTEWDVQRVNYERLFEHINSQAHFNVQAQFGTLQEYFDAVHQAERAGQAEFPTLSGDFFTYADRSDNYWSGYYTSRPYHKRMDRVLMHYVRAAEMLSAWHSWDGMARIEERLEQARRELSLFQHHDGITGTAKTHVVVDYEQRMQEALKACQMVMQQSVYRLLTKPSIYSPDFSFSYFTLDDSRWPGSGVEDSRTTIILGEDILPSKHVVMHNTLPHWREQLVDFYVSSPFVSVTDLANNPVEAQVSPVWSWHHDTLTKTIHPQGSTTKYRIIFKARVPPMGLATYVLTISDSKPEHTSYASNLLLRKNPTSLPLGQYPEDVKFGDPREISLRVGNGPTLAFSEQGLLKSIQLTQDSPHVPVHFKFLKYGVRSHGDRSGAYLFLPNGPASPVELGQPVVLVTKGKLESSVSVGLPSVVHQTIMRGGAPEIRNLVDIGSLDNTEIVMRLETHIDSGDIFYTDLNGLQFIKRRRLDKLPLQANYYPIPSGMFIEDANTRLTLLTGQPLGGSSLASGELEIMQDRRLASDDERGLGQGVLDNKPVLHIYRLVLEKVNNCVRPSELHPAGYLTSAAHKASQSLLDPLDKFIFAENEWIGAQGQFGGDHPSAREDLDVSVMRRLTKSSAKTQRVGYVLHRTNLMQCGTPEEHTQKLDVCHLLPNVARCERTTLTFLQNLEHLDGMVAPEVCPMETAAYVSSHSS

[3] = system: Drosophila Schneider (S2) cells; assay: viability of induced S2 cells by Trypan blue exclusion; format: cell-based; details: 10-20 μM cadmium, until the end of the induction period
Procedure: Initial experiments were carried out in S2 medium containing 10% bovine serum. Metal concentrations used to induce and time of induction were optimized for dGMII production. […] Cadmium has been reported to be detrimental to the growth of cells. However, at the concentrations used here, the cells continued to grow and maintain greater than 90% viability (as assessed by Trypan blue exclusion) until the end of the induction period. Cells were maintained in the continous presence of cadmium for up to three passages.

mouse GMII = target: T3, mouse GMII (Mus musculus, UniProt P27046); details: Rabouille et al., 1999; cited from earlier work
T3 sequence (P27046 1-1150): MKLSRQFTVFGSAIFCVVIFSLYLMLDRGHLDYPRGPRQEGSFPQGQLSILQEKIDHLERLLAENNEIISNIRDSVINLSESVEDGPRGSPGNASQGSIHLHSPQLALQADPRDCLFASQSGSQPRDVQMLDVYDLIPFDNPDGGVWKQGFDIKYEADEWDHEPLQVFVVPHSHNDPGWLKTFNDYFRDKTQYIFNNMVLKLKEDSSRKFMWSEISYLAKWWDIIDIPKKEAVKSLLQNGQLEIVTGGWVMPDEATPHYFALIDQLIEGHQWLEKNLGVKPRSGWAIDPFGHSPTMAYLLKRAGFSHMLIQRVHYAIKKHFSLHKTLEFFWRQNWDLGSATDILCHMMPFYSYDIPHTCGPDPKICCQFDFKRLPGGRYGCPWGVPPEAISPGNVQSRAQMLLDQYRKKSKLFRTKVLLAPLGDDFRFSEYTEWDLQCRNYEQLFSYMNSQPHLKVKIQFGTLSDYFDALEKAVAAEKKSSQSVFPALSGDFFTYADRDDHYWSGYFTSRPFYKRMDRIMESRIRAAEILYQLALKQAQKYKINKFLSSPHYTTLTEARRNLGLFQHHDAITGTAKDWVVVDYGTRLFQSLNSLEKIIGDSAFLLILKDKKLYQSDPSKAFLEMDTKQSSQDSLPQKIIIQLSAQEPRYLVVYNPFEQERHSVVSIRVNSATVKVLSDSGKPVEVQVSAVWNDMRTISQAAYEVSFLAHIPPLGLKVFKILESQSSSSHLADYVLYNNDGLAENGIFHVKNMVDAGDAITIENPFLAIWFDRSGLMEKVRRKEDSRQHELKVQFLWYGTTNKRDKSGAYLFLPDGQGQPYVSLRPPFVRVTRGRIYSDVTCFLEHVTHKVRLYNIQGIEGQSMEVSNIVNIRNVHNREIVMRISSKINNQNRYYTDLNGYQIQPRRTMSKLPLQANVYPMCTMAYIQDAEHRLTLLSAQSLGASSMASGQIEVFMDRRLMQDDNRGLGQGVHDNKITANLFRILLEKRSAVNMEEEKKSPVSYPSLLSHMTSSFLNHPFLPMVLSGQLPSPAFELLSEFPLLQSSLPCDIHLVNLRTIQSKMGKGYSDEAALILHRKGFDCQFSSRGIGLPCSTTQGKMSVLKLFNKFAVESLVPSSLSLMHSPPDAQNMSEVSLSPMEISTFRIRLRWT

For NC(CO)(CO)CO [Tris, tris(hydroxymethyl)-aminomethane, reference compound], the “inhibition of dGMII activity” value (dGMII [1]; Rabouille et al., 1999) is given as “inhibit”.
In the case of O[C@H]1[C@H]2[C@H](O)CCCN2C[C@H]1O [swainsonine], the “binding affinity for the enzyme, compared to the substrate-mimic DMNJ” value (dGMII [2]) was 10,000 times higher.
For [Cd] [Cadmium], the “cell viability (Trypan blue exclusion)” value [3] was “greater than 90%”.
For [Cu+2] [copper], the “inactivation of Drosophila GMII” value (dGMII [1]; Rabouille et al., 1999) is given as “effectively inactivate”, the pIC50 (dGMII [1]; read-out: inhibition of dGMII by copper, IC50) is given as 4.60 and the “inactivation of mouse GMII” value (mouse GMII) is given as “effectively inactivate”.
